A short description of data set [1]: Pancreatic insult activity in db/db mouse assessed as increase in lipase level in serum at 25 nmol/kg, sc administered every 2 days for 12 weeks. Type of data set: toxicity, organism-based. Particulars: in vivo, 2016 h.
Data set [2] in a line: Pancreatic insult activity in db/db mouse assessed as increase in amylase level in serum at 25 nmol/kg, sc administered every 2 days for 12 weeks. It counts as toxicity, organism-based. As to conditions: in vivo, 2016 h.
The subject of data set [3] is Mus musculus. The data set is described as follows: Anti-diabesity activity against high fat diet-induced DIO C57BL/6 mouse model assessed as decrease in body weight at 25 nmol/kg, sc administered for 2 weeks. Particulars: C57BL/6, 336 h, time 14 day. Type of data set: functional.
Data set [4] deals with Mus musculus. The data set is described as follows: Anti-diabesity activity against db/db mouse assessed as reduction in HbA1c level at 25 nmol/kg, sc administered every 2 days and measured on day 43. It counts as functional, organism-based. As to conditions: time 43.0 day.
Data set [5] deals with Mus musculus. The data set is described as follows: Anti-diabesity activity against db/db mouse assessed as reduction in fasting blood glucose level at 25 nmol/kg, sc administered every 2 days for 12 weeks. It counts as functional, organism-based.
The subject of data set [6] is Mus musculus. The data set is described as follows: Hypoglycemic activity in db/db mouse assessed as improvement in glucose tolerance at 25 nmol/kg, ip administered 30 min before oral glucose administration and measured upto 120 mins by OGTT. Type of data set: functional, organism-based.
Data set [7] deals with Mus musculus. The data set is described as follows: Hypoglycemic activity in db/db mouse assessed as reduction in glucose excursion at 25 nmol/kg, ip administered 30 min before oral glucose administration and measured upto 120 mins by OGTT. It counts as functional, organism-based.
Data set [8] relates to Mus musculus. The data set is described as follows: Insulinotropic activity in db/db mouse assessed as elevation of plasma insulin level at 25 nmol/kg, ip administered 30 min before oral glucose administration and measured upto 60 mins by ELISA. It counts as functional, organism-based. Particulars: time <= 90.0 min. (In general: An ELISA detects its analyte on a solid surface through an enzyme-linked reagent.)

Data set [9] deals with Mus musculus. The data set is described as follows: Anti-diabesity activity in DIO C57BL/6 mouse assessed as reduction in body weight at 10 nmol/kg, sc administered every 2 days for 10 days. It counts as functional. Particulars: time 10.0 day.
Data set [10] has as its system Mus musculus. The data set is described as follows: Anti-diabesity activity in DIO C57BL/6 mouse assessed as reduction in body weight at 25 nmol/kg, sc administered every 2 days for 10 days. Type of data set: functional. As to conditions: time 10.0 day.
For data set [11], the system named is Mus musculus. The data set is described as follows: Anti-diabesity activity in DIO C57BL/6 mouse assessed as improvement in insulin sensitivity at 25 nmol/kg, sc administered every 2 days for 10 days by insulin tolerance test. As to conditions: time 10.0 day. Type of data set: functional, organism-based.
Data set [12] concerns Mus musculus. The data set is described as follows: Anti-diabesity activity against DIO C57BL/6 mouse assessed as reduction in body weight at 25 nmol/kg, sc administered every 2 days for 3 weeks. It counts as functional. Particulars: time 21.0 day.
For data set [13], the system named is Mus musculus. The data set is described as follows: Anti-diabesity activity against DIO C57BL/6 mouse assessed as reduction in cumulative food intake at 25 nmol/kg, sc administered every 2 days for 3 weeks. Type of data set: functional, organism-based. Particulars: time 21.0 day.
For data set [14], the system named is Mus musculus. The data set is described as follows: Anti-diabesity activity against DIO C57BL/6 mouse assessed as decrease in fat mass at 25 nmol/kg, sc administered every 2 days for 3 weeks. Type of data set: functional, organism-based. As to conditions: time 21.0 day.
Data set [15] has as its system Mus musculus. The data set is described as follows: Anti-diabesity activity against DIO C57BL/6 mouse assessed as reduction in fasted blood glucose level at 25 nmol/kg, sc administered every 2 days for 3 weeks. Type of data set: functional, organism-based. As to conditions: time 21.0 day.
Data set [16] has as its system Mus musculus. The data set is described as follows: Anti-diabesity activity against DIO C57BL/6 mouse assessed as improvement in glucose tolerance at 25 nmol/kg, sc administered every 2 days for 3 weeks by OGTT. Particulars: time 21.0 day. Type of data set: functional, organism-based.
Data set [17] relates to Mus musculus. The data set is described as follows: Anti-diabesity activity against DIO C57BL/6 mouse assessed as reduction in cholesterol level in serum at 25 nmol/kg, sc administered every 2 days for 3 weeks. Particulars: time 21.0 day. Type of data set: functional, organism-based.
Data set [18] deals with Mus musculus. The data set is described as follows: Anti-diabesity activity against DIO C57BL/6 mouse assessed as reduction in triglycerides level in serum at 25 nmol/kg, sc administered every 2 days for 3 weeks. It counts as functional, organism-based. As to conditions: time 21.0 day.
Data set [19] deals with Mus musculus. The data set is described as follows: Anti-diabesity activity against db/db mouse assessed as reduction in body weight at 25 nmol/kg, sc administered every 2 days for 3 weeks. Type of data set: functional, organism-based. As to conditions: time 21.0 day.
Data set [20] deals with Mus musculus. The data set is described as follows: Anti-diabesity activity against db/db mouse assessed as reduction in cumulative food intake at 25 nmol/kg, sc administered every 2 days for 3 weeks. Particulars: time 21.0 day. It counts as functional, organism-based.
The test system of data set [21] is Mus musculus. The data set is described as follows: Anti-diabesity activity against db/db mouse assessed as reduction in fasted blood glucose level at 25 nmol/kg, sc administered every 2 days for 3 weeks. Type of data set: functional, organism-based. Particulars: time 21.0 day.
For data set [22], the system named is Mus musculus. The data set is described as follows: Anti-diabesity activity against db/db mouse assessed as increase in islet area at 25 nmol/kg, sc administered every 2 days for 3 weeks by H and E staining based analysis. Particulars: time 21.0 day. Type of data set: functional, organism-based.
The test system of data set [23] is Mus musculus. The data set is described as follows: Anti-diabesity activity against db/db mouse assessed as increase in islet number at 25 nmol/kg, sc administered every 2 days for 3 weeks by H and E staining based analysis. Type of data set: functional, organism-based. Particulars: time 21.0 day.
Data set [24] concerns Mus musculus. The data set is described as follows: Anti-diabesity activity against db/db mouse assessed as enhanced islets insulin content at 25 nmol/kg, sc administered every 2 days for 3 weeks by immunohistochemistry staining. Particulars: time 21.0 day. Type of data set: functional, organism-based.
In data set [25] the test system is Mus musculus. The data set is described as follows: Anti-diabesity activity against db/db mouse assessed as improvement in glucose tolerance at 25 nmol/kg, sc administered every 2 days for 12 weeks by OGTT. It counts as functional, organism-based.
Data set [26] has as its system Mus musculus. The data set is described as follows: Anti-diabesity activity in DIO C57BL/6 mouse assessed as reduction in body weight at 100 nmol/kg, sc administered every 2 days for 10 days. Type of data set: functional. As to conditions: time 10.0 day.
Data set [27] has as its system BRIN-BD11. The data set is described as follows: Insulinotropic activity in rat BRIN-BD11 cells assessed as increase in insulin secretion incubated for 20 mins by radioimmunoassay. It counts as functional, cell-based. As to conditions: DDE = dose-dependent effect.
The subject of data set [28] is Mus musculus. The data set is described as follows: Anti-diabesity activity against db/db mouse assessed as HbA1c level at 25 nmol/kg, sc administered every 2 days for 3 weeks. It counts as functional, organism-based. Particulars: time 21.0 day.
Data set [29] relates to Mus musculus. The data set is described as follows: Anti-diabesity activity against db/db mouse assessed as improvement in glucose tolerance at 25 nmol/kg, sc administered every 2 days for 3 weeks by OGTT. Type of data set: functional, organism-based. Particulars: time 21.0 day.
Data set [30] deals with Mus musculus. The data set is described as follows: Anti-diabesity activity against db/db mouse assessed as reduction in HbA1c level at 25 nmol/kg, sc administered every 2 days for 12 weeks. Type of data set: functional, organism-based.
Data set [31] has as its system Mus musculus. The data set is described as follows: Anti-diabesity activity against db/db mouse assessed as improvement in glucose tolerance level at 25 nmol/kg, sc administered every 2 days for 6 weeks followed by saline treatment for 6 weeks and measured during first 6 weeks by OGTT. Type of data set: functional, organism-based.
Data set [32] has as its system Mus musculus. The data set is described as follows: Anti-diabesity activity against db/db mouse assessed as reduction in fasting blood glucose level at 25 nmol/kg, sc administered every 2 days for 6 weeks followed by saline treatment for 6 weeks and measured during first 6 weeks. Type of data set: functional, organism-based.
Data set [33] has as its system Mus musculus. The data set is described as follows: Anti-diabesity activity against db/db mouse assessed as improvement in glucose tolerance level at 25 nmol/kg, sc administered every 2 days for 6 weeks followed by saline treatment for 6 weeks and measured during second 6 weeks by OGTT. Type of data set: functional, organism-based.
Data set [34] concerns Mus musculus. The data set is described as follows: Anti-diabesity activity against db/db mouse assessed as reduction in fasting blood glucose level at 25 nmol/kg, sc administered every 2 days for 6 weeks followed by saline treatment for 6 weeks and measured during second 6 weeks. It counts as functional, organism-based.
Data set [35] has as its system Mus musculus. The data set is described as follows: Anti-diabesity activity against db/db mouse assessed as reduction in HbA1c level at 25 nmol/kg, sc administered every 2 days for 6 weeks followed by saline treatment for 6 weeks and measured during first 6 weeks. It counts as functional, organism-based.
In data set [36] the test system is Mus musculus. The data set is described as follows: Anti-diabesity activity against db/db mouse assessed as reduction in HbA1c level at 25 nmol/kg, sc administered every 2 days for 6 weeks followed by saline treatment for 6 weeks and measured during second 6 weeks. Type of data set: functional, organism-based.
Data set [37] relates to Mus musculus. The data set is described as follows: Anti-diabesity activity against db/db mouse assessed as increase in insulin sensitivity by measuring reduction in plasma insulin level at 25 nmol/kg, sc administered every 2 days for 12 weeks by ELISA. It counts as functional, organism-based.
Data set [38] relates to Mus musculus. The data set is described as follows: Anti-diabesity activity against db/db mouse assessed as increase in pancreas mass at 25 nmol/kg, sc administered every 2 days for 12 weeks. It counts as functional, organism-based.
Data set [39] deals with Mus musculus. The data set is described as follows: Anti-diabesity activity against db/db mouse assessed as increase in IOD of insulin in pancreas at 25 nmol/kg, sc administered every 2 days for 12 weeks by immunohistochemistry. Type of data set: functional, organism-based.

Activity calls are given as the source filed them. No cut-off for these calls is given here.

As to SEMAGLUTIDE [listing 1 of 2 here], the Activity entry in data set [1] and in [2] was “Toxic” in each case.
Consider `CCCCCCCCCCCCCCCC(=O)N[C@@H](CCC(=O)NCCCC[C@H](NC(=O)[C@H](C)NC(=O)[C@H](C)NC(=O)[C@H](CCC(N)=O)NC(=O)CNC(=O)[C@H](CCC(=O)O)NC(=O)[C@H](CC(C)C)NC(=O)[C@H](Cc1ccc(O)cc1)NC(=O)[C@H](CO)NC(=O)[C@H](CO)NC(=O)[C@@H](NC(=O)[C@H](CC(=O)O)NC(=O)[C@H](CO)NC(=O)[C@@H](NC(=O)[C@H](Cc1ccccc1)NC(=O)[C@@H](NC(=O)CNC(=O)[C@H](CCC(=O)O)NC(=O)[C@H](C)NC(=O)[C@@H](N)Cc1cnc[nH]1)[C@@H](C)O)[C@@H](C)O)C(C)C)C(=O)N[C@@H](CCC(=O)O)C(=O)N[C@@H](Cc1ccccc1)C(=O)N[C@H](C(=O)N[C@@H](C)C(=O)N[C@@H](Cc1c[nH]c2ccccc12)C(=O)N[C@@H](CC(C)C)C(=O)N[C@H](C(=O)N[C@@H](CCCNC(=N)N)C(=O)NCC(=O)N[C@@H](CCCNC(=N)N)C(=O)NCC(=O)O)C(C)C)[C@@H](C)CC)C(=O)O` [LIRAGLUTIDE], for which, in data set [3], the inhibition in vivo at 0.025 µmol/kg amounted to 9.8%.
With SEMAGLUTIDE [listing 2 of 2 here], the outcome in data set [4], in [5], in [6], in data set [7], in data set [8] and in data set [11] was Active. For the same compound, the result in data set [13], in [14], in data set [15], in data set [16], in [17] and in data set [18] was Active. Further, the outcome in data set [19], in [20], in data set [21], in data set [22], in [23] and in data set [24] was Active. For the same compound, the outcome in data set [25], in data set [28], in [29], in data set [30], in data set [31] and in data set [32] was Active. The outcome in data set [33], in data set [34], in data set [35], in data set [36], in data set [37] and in data set [38] was Active. In addition, the outcome in data set [39] was Active. The inhibition in data set [9] turned out to be 8.2%; in data set [10] it was 12.5%; in [12], 14.9%; in data set [26], 17.3%. Besides, in [27], the Activity entry is “Dde”.

As usually defined, the inhibition in vivo is the share of the control response that was lost under treatment. What is called inhibition is the relative decrease from the control value, in per cent.

These data come from ChEMBL document CHEMBL5143608, “Peptide-based long-acting co-agonists of GLP-1 and cholecystokinin 1 receptors as novel anti-diabesity agents” (Eur J Med Chem, 2022).
